{"source": "patent US8143316B2", "about": "“Method for treating peripheral vascular diseases” (Sucampo AG, priority 2005, dated 2012)", "key": {"[1]": {"test_system": "Male Wistar rats", "assay": "Decreased peripheral microcirculation (cutaneous tissue blood flow) induced by ET-1 infusion in rats", "format": "in vivo, rat", "conditions": "100 μg/kg i.v.; for blood pressure: ET-1 infused rats; for cutaneous tissue blood flow: flow decreased by ET-1 infusion, up to 60 min after administration, vs vehicle", "description": "Male Wistar rats (7-week-old) were used in this study. Animals were anesthetized by intraperitoneal injection of thiobutabarbital sodium (80 mg/kg). Body temperature (rectal temperature) of the animals was maintained at approximately 37° C. throughout the experiment with a heating pad. After depilating the instep of the right hind limb with a depilatory cream, the cutaneous tissue blood flow was measured continuously using a non-contact type laser Doppler flowmeter (FLO-N1, Omegawave Inc., Japan). For measurements of mean arterial blood pressure, a polyethylene catheter placed in the left femoral artery was connected to a pressure transducer (TP-400T, Nihon Koden Inc., Japan) coupled to an amplifier (AP-641G, Nihon Koden Inc., Japan). The cutaneous tissue blood flow and blood pressure were recorded and analyzed using a computer system (HEM Ver. 3.5, Notocord Systems, France). Endothelin-1 (ET-1) was infused into the femoral artery at a rate of 200 pmol/kg/min with a syringe pump via the polyethylene catheter inserted retrogradely into the caudal epigastric artery branched from the right femoral artery for 15 minutes. Infusion rate of ET-1 was decreased to 20 pmol/kg/min after the termination of 200 pmol/kg/min infusion, and the decreased amount of ET-1 infusion was kept until the end of this study. The cutaneous tissue blood flow was decreased by the infusion of ET-1 into the femoral artery. When the cutaneous tissue blood flow was reached a new steady level (25 to 50 minutes after starting ET-1 infusion), vehicle or each test compound solution was administered to the animals over 2 minutes in a volume of 1 mL/kg via the polyethylene catheter placed in the left femoral vein. The administered amount of the test compound was 100 μg/kg. The cutaneous tissue blood flow and blood pressure were measured continuously and recorded every 5 minutes for 60 minutes after the administration of vehicle or each test solution."}, "[2]": {"test_system": "Male Crl: CD(SD) rats", "assay": "Cutaneous tissue blood flow in anesthetized rats", "format": "in vivo, rat", "description": "Male Crl: CD(SD) rats were anesthetized by an intraperitoneal injection of thiobutabarbital sodium. Body temperature (rectal temperature) of the animals was maintained at approximately 37° C. throughout the experiment with a heating pad. After depilating the instep of the right hind limb with a depilatory cream, the cutaneous tissue blood flow CTBF) was measured before and 30 minutes after intravenous administration of Compound C (11-deoxy-13,14-dihyrdo-16,16-difluoro-PGE1) or the vehicle using a non-contact type laser Doppler flowmeter (FLO-N1, Omegawave Inc., Japan). The blood pressure and heart rate were also monitored."}, "[3]": {"test_system": "platelet-rich plasma (PRP)", "assay": "ADP-induced platelet aggregation in rabbit platelet-rich plasma", "format": "cell-based", "conditions": "for Maximum aggregation: ADP-induced, mean ± S.E. of 3 rabbits; for Inhibition of platelet aggregation: vs vehicle control (100%)", "description": "Four months old male Kbs: J.W. rabbits were housed in aluminum cages in an animal room controlled for roomtemperature (23-24° C.), relative humidity (55-74%), ventilation rate (10-20 times/hour) and 12-hour light/dark cycle (lighting: 7:00 a.m.-7:00 p.m.). The animals were feeded with solid diet for rabbits (120 g/animal/day) and water ad libitum from automatic eatering system. The animals were subjected to at least 6 days of quarantine and acclimation. During the period, their body weight measurements and general sign observations were conducted, and the animals judged to be in good health were used in this study.\nA cannula was inserted into the common carotid artery of the rabbit under inhalation anesthesia of isoflurane. Nine parts of the blood samples obtained through the cannula were mixed with 1 part of 3.8 w/v % sodium citrate. After centrifugation of the blood samples for 10 min at 1,000 rpm, platelet-rich plasma (PRP) was collected from the top layer. Then the bottom layer was further centrifuged for 15 min at 3,000 rpm, and platelet-poor plasma (PPP) was collected from the top layer. The platelet counts of the PRP and PPP fractions were performed using an ADVIA120 Hematology system (ADVIA120, Bayer Medical Ltd.). The PRP fraction was diluted with the PPP fraction so that the platelet counts was adjusted to approximately 30×10^4 cells/μL. Thus obtained PRP (0.178 mL) was put into a cuvet, and pre-incubated on a warm bath at 37° C. for about 5 minutes. Test solution (0.022 mL) containing prostaglandin E1 or Compound A was added to the PRP. One minute later, 25 μM ADP solution (0.022 mL) was added and the degree of platelet aggregation was measured using a platelet aggregation measuring device (NBS hematolaser, Nikko Bioscience Inc.). For each test solution, a duplicate test was performed on the blood samples from 3 animals. Inhibition rate (%) was evaluated by comparing the aggregation in the test substance group with that in the vehicle control group (100%)."}, "[4]": {"test_system": "male Japanese white rabbits", "assay": "Intraocular pressure after topical eye application in rabbits", "format": "in vivo, rabbit", "conditions": "0.0016% topical", "description": "Eight male Japanese white rabbits (Std: JW/CSK) weighing approximately 2.5-3.5 kg were used in this study. The same eye of each animal was treated with the test compounds and the other eye was with the vehicle consistently throughout the study with a washout period between each treatment. Thirty microliters of each test compound solution was applied topically to one eye of each animal using a micropipette (Pipetman, Gilson, Inc., France). The contralateral control eye received an equal volume of the vehicle. The animals were dosed at approximately the same time each morning. After the animals were restrained in a holder, one drop of topical anesthetic (0.4% oxybuprocaine hydrochloride) was applied to both eyes and the IOP was measured with an applanation pneumatonometer (Model 30 Classic™, Mentor O & O, Inc., USA) before dosing, and at 1, 2, 4, 6, and 8 hours after dosing."}, "[5]": {"test_system": "streptozotocin-induced diabetic rats", "assay": "Cutaneous tissue blood flow in streptozotocin-induced diabetic rats", "format": "in vivo, rat", "description": "Diabetes was induced by single intravenous injection of 50 mg/kg streptozotocin (STZ) in 7-week-old male Crl: CD(SD) rats. Animals with plasma glucose levels 400 mg/dL or more on day 19 after the STZ treatment were used in this study. Three weeks after the STZ injection, animals were anesthetized by an intraperitoneal injection of thiobutabarbital sodium. Body temperature (rectal temperature) of the animals was maintained at approximately 37° C. throughout the experiment with a heating pad After depilating the instep of the right hind limb with a depilatory cream, the cutaneous tissue blood flow (CTBF) was measured continuously using a non-contact type laser Doppler flowmeter (FLO-N1, Omegawave Inc., Japan). The blood pressure and heart rate were simultaneously monitored. Compound A or the vehicle was intravenously administered to the animals over 10 min."}, "[6]": {"test_system": "Male GK/Jcl rats", "assay": "Cutaneous tissue blood flow in spontaneous diabetes rats", "format": "in vivo, rat", "description": "Male GK/Jcl rats, a spontaneous model of non-insulin-dependent diabetes, were anesthetized by an intraperitoneal injection of thiobutabarbital sodium. Body temperature (rectal temperature) of the animals was maintained at approximately 37° C. throughout the experiment with a heating pad. After depilating the instep of the right hind limb with a depilatory cream, the cutaneous tissue blood flow (CTBF) was measured before (base line) and 20 minutes after intravenous administration of Compound A or the vehicle using a non-contact type laser Doppler flowmeter (FLO-N1, Omegawave Inc., Japan). Data was expressed as % compared with the base line cutaneous tissue blood flow."}}, "data": [{"compound": "CCCCC(F)(F)C(=O)CCC1CCC(=O)C1CCCCCCC(=O)OC(C)C", "note": "(centres unmarked) [Compound B, 11-deoxy-13,14-dihydro-15-keto-16,16-difluoro-PGE1 isopropyl ester]", "values": [{"measurement": "blood pressure", "setting": "[1]", "result": "no significant effect"}, {"measurement": "cutaneous tissue blood flow", "setting": "[1]", "result": "significantly increased"}]}, {"compound": "CCCCC(F)(F)C(O)CCC1CCC(=O)C1CCCCCCC(=O)O", "note": "(centres unmarked) [Compound C, 11-deoxy-13,14-dihyrdo-16,16-difluoro-PGE1]", "values": [{"measurement": "Cutaneous Tissue Blood Flow, After administration", "setting": "[2]; 10 μg/kg i.v., 30 minutes after administration, mean ± S.E., n=5", "result": "13.0 ± 0.2", "unit": "mL/min/100 g tissue"}, {"measurement": "Cutaneous Tissue Blood Flow, Before administration", "setting": "[2]; 10 μg/kg i.v., before administration (baseline), mean ± S.E., n=5", "result": "11.6 ± 0.3", "unit": "mL/min/100 g tissue"}, {"measurement": "blood pressure", "setting": "[2]; i.v.", "result": "no effects"}, {"measurement": "heart rate", "setting": "[2]; i.v.", "result": "no effects"}, {"measurement": "cutaneous tissue blood flow (in words)", "setting": "[2]; i.v., compared with vehicle treatment", "result": "significantly increased"}]}, {"compound": "CCCCC[C@H](O)/C=C/[C@H]1[C@H](O)CC(=O)[C@@H]1CCCCCCC(=O)O", "note": "[PGE1, prostaglandin E1, reference compound]", "values": [{"measurement": "Maximum aggregation", "setting": "[3]; 1 × 10^−6 g/mL", "result": "4.0 ± 0.7", "unit": "%"}, {"measurement": "Inhibition of platelet aggregation", "setting": "[3]; 1 × 10^−6 g/mL", "result": 89.0, "unit": "%"}, {"measurement": "Maximum aggregation", "setting": "[3]; 1 × 10^−7 g/mL", "result": "3.2 ± 0.6", "unit": "%"}, {"measurement": "Inhibition of platelet aggregation", "setting": "[3]; 1 × 10^−7 g/mL", "result": 91.2, "unit": "%"}, {"measurement": "Maximum aggregation", "setting": "[3]; 1 × 10^−8 g/mL", "result": "28.7 ± 3.6", "unit": "%"}, {"measurement": "Inhibition of platelet aggregation", "setting": "[3]; 1 × 10^−8 g/mL", "result": 20.9, "unit": "%"}]}, {"compound": "CCCCC(F)(F)C(=O)CCC1CCC(=O)C1CCCCCCC(=O)O", "note": "(centres unmarked) [Compound A, 11-deoxy-13,14-dihydro-15-keto-16,16-difluoro-PGE1]", "values": [{"measurement": "blood pressure", "setting": "[1]", "result": "no significant effect"}, {"measurement": "cutaneous tissue blood flow", "setting": "[1]", "result": "significantly increased"}, {"measurement": "IOP, 1 hr after administration", "setting": "[4]; 30 μL, 1 hr, mean ± SE, n=8", "result": "13.1 ± 0.6", "unit": "mmHg"}, {"measurement": "IOP, 2 hr after administration", "setting": "[4]; 30 μL, 2 hr, mean ± SE, n=8", "result": "14.5 ± 0.6", "unit": "mmHg"}, {"measurement": "IOP, 4 hr after administration", "setting": "[4]; 30 μL, 4 hr, mean ± SE, n=8", "result": "13.8 ± 0.8", "unit": "mmHg"}, {"measurement": "IOP, 6 hr after administration", "setting": "[4]; 30 μL, 6 hr, mean ± SE, n=8", "result": "15.1 ± 1.0", "unit": "mmHg"}, {"measurement": "IOP, 8 hr after administration", "setting": "[4]; 30 μL, 8 hr, mean ± SE, n=8", "result": "17.5 ± 1.3", "unit": "mmHg"}, {"measurement": "IOP, Pre", "setting": "[4]; 30 μL, before dosing (baseline), mean ± SE, n=8", "result": "17.0 ± 0.8", "unit": "mmHg"}, {"measurement": "intraocular pressure (in words)", "setting": "[4]; vs vehicle-treated contralateral eye", "result": "significantly lowered"}, {"measurement": "Cutaneous Tissue Blood Flow, Pre", "setting": "[5]; 30 μg/kg i.v. over 10 min, before dosing (baseline), mean ± S.E., n=5", "result": "4.8 ± 0.5", "unit": "mL/min/100 g tissue"}, {"measurement": "blood pressure (BP)", "setting": "[5]; STZ diabetic rats, i.v.", "result": "no effects"}, {"measurement": "heart rate", "setting": "[5]; STZ diabetic rats, i.v.", "result": "no effects"}, {"measurement": "cutaneous tissue blood flow (in words)", "setting": "[5]; STZ diabetic rats, i.v., compared with vehicle", "result": "significantly increased"}, {"measurement": "Maximum aggregation", "setting": "[3]; 1 × 10^−5 g/mL", "result": "36.8 ± 3.1", "unit": "%"}, {"measurement": "Inhibition of platelet aggregation", "setting": "[3]; 1 × 10^−5 g/mL", "result": "−1.4", "unit": "%"}, {"measurement": "Maximum aggregation", "setting": "[3]; 1 × 10^−6 g/mL", "result": "36.2 ± 4.0", "unit": "%"}, {"measurement": "Inhibition of platelet aggregation", "setting": "[3]; 1 × 10^−6 g/mL", "result": 0.3, "unit": "%"}, {"measurement": "Maximum aggregation", "setting": "[3]; 1 × 10^−7 g/mL", "result": "35.2 ± 3.9", "unit": "%"}, {"measurement": "Inhibition of platelet aggregation", "setting": "[3]; 1 × 10^−7 g/mL", "result": 3.0, "unit": "%"}, {"measurement": "effect on platelet aggregation (in words)", "setting": "[3]; up to the highest concentration (1×10^−5 g/mL) tested", "result": "no effect"}, {"measurement": "Cutaneous Tissue Blood Flow compared with the base line", "setting": "[6]; 20 μg/kg i.v., 20 minutes after administration, mean ± S.E., n=5", "result": "122 ± 1", "unit": "%"}, {"measurement": "cutaneous tissue blood flow (in words)", "setting": "[6]; spontaneous diabetes rats, i.v., compared with vehicle", "result": "significantly increased"}]}]}
